We go through four compounds from publication PMC5384453, “A multi-functional PEGylated gold(III) compound: potent anti-cancer properties and self-assembly into nanostructures for drug co-delivery” (Chemical Science, 2016).

In data set [1] the test system is NCM460 cells. The data set can be described thus: Time-dependent induction of apoptosis, Caspase-3/7 Green ReadyProbes fluorescence microscopy. The class given is cell-based, human. The conditions noted are these: NCM460, 2 μM, Caspase-3/7 Green Reagent. Here is the method:
(§1) B from 20.1 to 25 min and returned to initial conditions and equilibrated for 3 minutes.
(§2) The flow rate was 0.4 mL/min and the injection volume was 2 µL. The UPLC-QTOF-MS chromatograms of 1, 3, 4 and solvent control in acetonitrile were also recorded for the interpretation of UPLC-QTOF-MS chromatograms of the cell lysate.
(§3) Cellular uptake experiments. HCT116, A2780 and A2780adr (2×10 5 cells), and MIHA and NCM460 (3.5×10 5 cells) cells were grown on 6-well plates at 37 °C under an atmosphere of 5% CO2 for 48 h. The culture medium was then removed, washed with PBS solution, and incubated with culture medium containing nanostructures of 1 […]
Au1a (2 µM; with 1 vol% DMSO). At a predetermined time, the culture medium was removed and washed with PBS solution for three times. […] An aliquot of the cell suspension was subjected to Bio-rad protein assay with a microtitre plate reader at the absorbance at 595 nm, using bovine serum albumin as the protein standard. […] The solution mixture was heated at 65 °C with shaking overnight, and the gold content was determined by ICP-MS. […]
(§4) then removed and washed with PBS solution. The cells were then incubated with culture medium containing nanostructures of 1 (2 µM) and CellEvent Caspase-3/7 Green ReadyProbes Reagent (30 µL), or Au1a (2 µM; with 1 vol% DMSO) and CellEvent Caspase-3/7 Green ReadyProbes Reagent (30 µL) at 37 °C under an atmosphere of 5% CO2. […]

The test system of data set [2] is HCT116 cells. The description is as above. The format is cell-based, human. Particulars: HCT116, 2 μM, Caspase-3/7 Green Reagent. The protocol: as §1, §2, §3
Au1a (2 µM; with 1 vol% DMSO). At a predetermined time, the culture medium was removed and washed with PBS solution for three times. The cells were then harvested and dispersed in ice-cold water. An aliquot of the cell suspension was subjected to Bio-rad protein assay with a microtitre plate reader at the absorbance at 595 nm, using bovine serum albumin as the protein standard. […] The solution mixture was heated at 65 °C with shaking overnight, and the gold content was determined by ICP-MS. […]
then removed and washed with PBS solution. The cells were then incubated with culture medium containing nanostructures of 1 (2 µM) and CellEvent Caspase-3/7 Green ReadyProbes Reagent (30 µL), or Au1a (2 µM; with 1 vol% DMSO) and CellEvent Caspase-3/7 Green ReadyProbes Reagent (30 µL) at 37 °C under an atmosphere of 5% CO2. Fluorescence images at different time intervals were recorded by the fluorescence microscope without washing the cells. […]
once every 2–3 days. The tumor volume was calculated by the equation: Volume (mm3) = l×w2/2, where l and w were the length and width of the tumor. At the end of the treatment, the nude mice were sacrificed and the tumor weight was measured. […]
At a predetermined time, the culture medium was removed and washed with PBS solution for three times. […] An aliquot of the cell suspension was subjected to Bio-rad protein assay with a microtitre plate reader at the absorbance at 595 nm, using bovine serum albumin as the protein standard. […]

Data set [3] has as its system A2780adr cells. Kind of data set: Cellular uptake, gold content by ICP-MS. The class given is in vitro ADME, human. Particulars: 2 μM, 37 °C. The protocol: The uptake of 1 and 3, and Au1a by cancer cells and non-tumorigenic cells was examined in terms of the gold content in the cell lysates using ICP-MS.
as §1, §2
Cellular uptake experiments. HCT116, A2780 and A2780adr (2×10 5 cells), and MIHA and NCM460 (3.5×10 5 cells) cells were grown on 6-well plates at 37 °C under an atmosphere of 5% CO2 for 48 h. […]
Au1a (2 µM; with 1 vol% DMSO). […] An aliquot of the cell suspension was subjected to Bio-rad protein assay with a microtitre plate reader at the absorbance at 595 nm, using bovine serum albumin as the protein standard. […] The solution mixture was heated at 65 °C with shaking overnight, and the gold content was determined by ICP-MS. […]
as §4

The nature of data set [4]: Transmission electron microscopy of nanostructures. The format is physicochemical. Particulars: self-assembled in PBS. From the text: On the other hand, the almost neutral zeta potentials of the nanostructures of 1 and 2 validated the presence of PEG pendant in the shell of the nanostructures. The identity of gold species in the core of the nanostructures was supported by the good contrast of the core in the TEM images (Fig. 1c and S3a ^†) and energy-dispersive X-ray (EDX) spectra (Fig. 1f).
The gold content in NC1 was confirmed by EDX (Fig. 1g).

In data set [5] the test system is HCT116 cells. The data set can be described thus: Flow cytometric analysis of apoptosis with propidium iodide co-staining (Fig. S14, S15). The format is cell-based, human. The conditions noted are these: HCT116, 2 μM. The protocol:
with gold(III) complexes and FITC-annexin V staining. HCT116 (1×10 5 cells) and […]
annexin-binding buffer solution. The cells were then incubated with FITC-annexin V […]
at room temperature in dark for 15 min. The solution was then removed, and the cells were washed with annexin-binding buffer solution. Fluorescence images were then […]
in ice and analyzed by flow cytometry immediately. […]
staining and flow cytometry. […]
atmosphere of 5% CO2. After reaching 80% confluency, the culture medium was […]
of 5% CO2 for 45 min. The solution was then removed. The stained NCM460 cells […]
the procedure described above. […]
right fore of BALB/c nude mice. When the tumor volume reached 70 mm3 after […]
propidium iodide staining. (b) Flow cytometric analysis of NCM460 […]
annexin V and propidium iodide staining. (c) Flow cytometric analysis […]
annexin V and propidium iodide staining.

Turning to `C1=Cc2nc1c(-c1ccccc1)c1ccc([n-]1)c(-c1ccccc1)c1nc(c(-c3ccccc3)c3ccc([n-]3)c2-c2ccccc2)C=C1.[Au+3].[Cl-]` [Au1a, [Au(TPP)]Cl, reference compound], the “incubation time at which induction of apoptosis was apparent” value in data set [1] came to 20 h; in data set [2] it was 12 h. In addition, in data set [3], the “incubation time after which the amount in A2780adr cells decreases” value is 0.5 h.

Turning to `COC(=O)c1ccc(C2=C3C=CC(=N3)C(c3ccccc3)=c3ccc4[n]3[Au+][n]3c(ccc32)C(c2ccccc2)=C2C=CC(=N2)C=4c2ccccc2)cc1.[Cl-]` [Compound 3, [Au(TPP–COOCH3)]^+], the “incubation time after which the amount in A2780adr cells decreases” value in data set [3] came to 0.75 h.

For “[Au(TPP–CONH–PEG5000–OCH3)]Cl [Compound 2]”, the “diameter of nanostructures (TEM)” value in data set [4] was around 200 nm.

Regarding “[Au(TPP–COO–PEG5000–OCH3)]Cl [Compound 1]”, the “apoptotic cells (Q4 region, corrected)” value came out at 35.83% in data set [5] (24 h) and 43.83% in data set [5] (36 h). The “late apoptotic events (Q2 region, corrected)” value in data set [5] (24 h) was determined as 1.96%; in data set [5] (36 h), 10.6%. Further, the “incubation time at which induction of apoptosis was apparent” value in data set [1] was “no significant apoptosis”; in data set [2] it was 15 h. Also, the “diameter of nanostructures (TEM)” value in data set [4] is recorded as “ca. 120 nm”.
